What was measured:
MYXV [1] = assay: Viral replication assay: progeny virus titration on permissive rabbit RK13 cells; assay type: cell-based, myxoma virus; conditions: PANC-1 and HT29 cells; LMB 0.001-0.1 μM
Experimental: Viral titers in different human cancer cell lines were determined using a viral replication assay. Cells were seeded in 24-well plates (2×10^5 cells/well). The next day, the cells were treated with different concentrations of leptomycin B (LMB) or selinexor diluted in DMEM for 1 hour. MYXV was added to the cells and incubated for one hour at 37° C. After 1 hour, the unbound viruses were washed away using DMEM, and DMEM with LMB or selinexor was added to the cells. Cells were harvested in DMEM without LMB or selinexor at the indicated time points. After harvesting the cells, they were stored at −80° C. until processing. Samples were subjected to three freeze/thaw cycles and one-minute sonification to lyse cells and release the viral particles. Afterwards, different dilutions were prepared in DMEM and plated on rabbit RK13 and foci were counted after 48 hours using a fluorescent microscope. All assays and dilutions were performed in triplicate.

DHX9 = assay: Immunofluorescence staining of DHX9 localization / antiviral granules in MYXV-infected A549 cells; assay type: cell-based, human
Experimental: Immunofluorescence: Cells (5×10^5-1×10^6/dish) were seeded onto glass bottom 35 mm petri dishes overnight. Depending on the experiment, the next day, cells were transfected with siRNA for 48 hours or treated with a nuclear export inhibitor, MYXV, or a combination of both. At different time points after treatment, the cells were washed with PBS three times, fixed with 2% paraformaldehyde in PBS for 12 minutes at room temperature, washed with PBS three times, and permeabilized in 0.1% Triton™ X-100 in PBS for 90 seconds at room temperature. Fixed cells were washed with PBS three times and then blocked with 3% BSA in PBS for 30 minutes at 37° C., incubated with primary antibody (1:300 dilution) for 30 minutes at 37° C., washed with PBS six times, and incubated with secondary antibodies conjugated to different Alexa Fluor. After washing again with PBS six times, samples were mounted on glass slides with Vecta Shield (Vectorlabs) containing DAPI (4′,6′-diamidino-2-phenylindole) to stain DNA in the nuclei […]. Images were captured using a fluorescence microscope (Leica).

MYXV [2] = assay: MYXV reporter gene expression (GFP/TdTomato) and foci by fluorescence microscopy in human cancer cell lines; conditions: PANC-1 and HT29 cells; pretreatment with LMB 0.001-0.1 μM; vMyx-GFP-TdTomato

**Q.** CCC(=C/[C@H](C)C/C=C/C(C)=C/[C@@H](C)C(=O)[C@@H](C)[C@H](O)[C@@H](C)C/C(C)=C/C(=O)O)/C=C/[C@@H]1OC(=O)C=C[C@@H]1C [LMB, leptomycin B] was tested. Which “viral production measured by titration assay” value (MYXV [1]) did it give?
**A.** The value was “significantly enhanced viral production”.

**Q.** And the “formation of DHX9 antiviral granules in the cytoplasm” value (DHX9; A549 cells infected with vMyx-GFP, 24 h)?
**A.** The value was “blocked the formation of antiviral granules”.

**Q.** And the “cells in which DHX9 remained in the nucleus” value (DHX9; A549 cells, LMB 1 h then vMyx-GFP MOI=1, 24 h)?
**A.** The value was > 80%.

**Q.** What about the “viral gene expression (early/late GFP and late TdTomato reporter protein expression)” value (MYXV [2]) of the same compound?
**A.** Its value is “enhanced viral gene expression”.
